Reference: patent US9050378B2, “N2S2 chelate-targeting ligand conjugates” (Board of Regents, The University of Texas System, priority 2003, dated 2015)
Ends that are not written are not given here.

Legend:
[1] = tested on: RBA CRL-1747 mammary tumor; experiment: Biodistribution in breast (mammary) tumor-bearing rats; type: in vivo, rat; settings: iv
Protocol: Biodistribution was assessed in mammary tumor-bearing rats (RBA CRL-1747, n=3/time interval, iv). Studies were performed 14 to 17 days after implantation when tumors reached approximately 1 cm in diameter. Following administration of the radiotracer, rats were sacrificed at 0.5-4 hrs. The selected tissues were excised, weighed and counted for radioactivity by using a gamma counter (Packard Instruments, Downers Grove, Ill.). The biodistribution of tracer in each sample was calculated as percentage of the injected dose per gram of tissue wet weight (% ID/g).
Biodistribution was assessed in breast tumor-bearing rats (RBA CRL-1747, n=3/time interval, iv). Studies were performed 14 to 17 days after implantation when tumors reached approximately 1 cm in diameter. Following administration of the radiotracer, rats were sacrificed at 0.5-4 hrs. The selected tissues were excised, weighed and counted for radioactivity by using a gamma counter (Packard Instruments, Downers Grove, Ill.). The biodistribution of tracer in each sample was calculated as percentage of the injected dose per gram of tissue wet weight (% ID/g).

[2] = tested on: RBA CRL-1747 (breast cancer cells); experiment: In vitro cellular uptake compared to ^99mTc-EC in breast cancer cells; type: cell-based, rat; settings: 0.5-2 hrs
Protocol: An in vitro cell culture using tumor cells was incubated with ^99mTc-EC-celecoxib (4 μCi/50,000 cells/well) at 0.5-2 hrs in RBA CRL-1747.
An in vitro cell culture using tumor cells was incubated with ^99mTc-EC-LH antibody (4 μCi/50,000 cells/well) at 0.5-2 hrs in RBA CRL-1747 (breast cancer cells).
An in vitro cell culture using tumor cells was incubated with ^99mTc-EC-carnitine (4-6 μCi/50,000 cells/well) at 0.5-2 hrs in breast cancer cells.

[3] = tested on: human prostate cancer cells (LNCap, PC-3); experiment: In vitro cellular uptake in human prostate cancer cells; type: cell-based; settings: 0.5-2 hrs, LNCap and PC-3
Protocol: An in vitro cell culture using tumor cells was incubated with ^99mTc-EC-LHRH (4-6 μCi/100,000 cells/well) at 0.5-2 hrs in human prostate cancer cells. Two types cell lines were used. They are either sensitive to androgen (LNCap) or unresponsive to androgen (PC-3) therapy.

With `Cc1ccc(-c2cc(C(F)(F)F)nn2-c2ccc(S(=O)(=O)NC(=O)NCC(=O)NCCNC(=O)C3C[S][99Tc]45(=[O])[S]CC(C(=O)O)[N]4CC[N]35)cc2)cc1` (stereo not drawn) [^99mTc-EC-celecoxib] the “tumor-to-tissue count density ratios” value ([1]; 0.5-4 hrs) was “increased tumor-to-tissue count density ratios as a function of time”, the “BONE & JOINT” value ([1]; 30 min) was 0.324 ± 0.036 % of injected dose per gram of tissue weight and the BONE/MUSCLE ([1]; 30 min) was 2.419 ± 0.225. The Blood ([1]; 30 min) was 2.293 ± 0.038 % of injected dose per gram of tissue weight, the Heart ([1]; 30 min) was 0.475 ± 0.025 % of injected dose per gram of tissue weight and the Intestine ([1]; 30 min) was 0.406 ± 0.039 % of injected dose per gram of tissue weight. The Kidney ([1]; 30 min) was 4.963 ± 0.147 % of injected dose per gram of tissue weight, the Liver ([1]; 30 min) was 1.556 ± 0.046 % of injected dose per gram of tissue weight and the Lung ([1]; 30 min) was 1.033 ± 0.035 % of injected dose per gram of tissue weight. The Muscle ([1]; 30 min) was 0.133 ± 0.007 % of injected dose per gram of tissue weight, the Spleen ([1]; 30 min) was 0.594 ± 0.298 % of injected dose per gram of tissue weight and the Stomach ([1]; 30 min) was 0.370 ± 0.010 % of injected dose per gram of tissue weight. The Thyroid ([1]; 30 min) was 0.784 ± 0.090 % of injected dose per gram of tissue weight, the Tumor ([1]; 30 min) was 0.587 ± 0.062 % of injected dose per gram of tissue weight and the Tumor/Blood ([1]; 30 min) was 0.255 ± 0.022. The Tumor/Muscle ([1]; 30 min) was 4.375 ± 0.304, the UTERUS ([1]; 30 min) was 0.595 ± 0.003 % of injected dose per gram of tissue weight and the UTERUS/BLOOD ([1]; 30 min) was 0.259 ± 0.003. For the same molecule, the UTERUS/MUSCLE ([1]; 30 min) was 4.471 ± 0.257, the “BONE & JOINT” value ([1]; 2 h) was 0.190 ± 0.003 % of injected dose per gram of tissue weight and the BONE/MUSCLE ([1]; 2 h) was 3.058 ± 0.114. The Blood ([1]; 2 h) was 1.388 ± 0.063 % of injected dose per gram of tissue weight, the Heart ([1]; 2 h) was 0.283 ± 0.017 % of injected dose per gram of tissue weight and the Intestine ([1]; 2 h) was 0.276 ± 0.061 % of injected dose per gram of tissue weight. For the same molecule, the Kidney ([1]; 2 h) was 6.088 ± 0.305 % of injected dose per gram of tissue weight, the Liver ([1]; 2 h) was 1.461 ± 0.049 % of injected dose per gram of tissue weight and the Lung ([1]; 2 h) was 0.712 ± 0.098 % of injected dose per gram of tissue weight. For the same molecule, the Muscle ([1]; 2 h) was 0.062 ± 0.003 % of injected dose per gram of tissue weight, the Spleen ([1]; 2 h) was 0.965 ± 0.056 % of injected dose per gram of tissue weight and the Stomach ([1]; 2 h) was 0.187 ± 0.004 % of injected dose per gram of tissue weight. The Thyroid ([1]; 2 h) was 0.449 ± 0.015 % of injected dose per gram of tissue weight, the Tumor ([1]; 2 h) was 0.424 ± 0.019 % of injected dose per gram of tissue weight and the Tumor/Blood ([1]; 2 h) was 0.307 ± 0.018. The Tumor/Muscle ([1]; 2 h) was 6.876 ± 0.704, the UTERUS ([1]; 2 h) was 0.334 ± 0.034 % of injected dose per gram of tissue weight and the UTERUS/BLOOD ([1]; 2 h) was 0.240 ± 0.021. For the same molecule, the UTERUS/MUSCLE ([1]; 2 h) was 5.442 ± 0.852, the “BONE & JOINT” value ([1]; 4 h) was 0.178 ± 0.022 % of injected dose per gram of tissue weight and the BONE/MUSCLE ([1]; 4 h) was 4.314 ± 0.739. For the same molecule, the Blood ([1]; 4 h) was 1.031 ± 0.033 % of injected dose per gram of tissue weight, the Heart ([1]; 4 h) was 0.224 ± 0.004 % of injected dose per gram of tissue weight and the Intestine ([1]; 4 h) was 0.190 ± 0.006 % of injected dose per gram of tissue weight. For the same molecule, the Kidney ([1]; 4 h) was 6.363 ± 0.260 % of injected dose per gram of tissue weight, the Liver ([1]; 4 h) was 1.506 ± 0.080 % of injected dose per gram of tissue weight and the Lung ([1]; 4 h) was 0.500 ± 0.011 % of injected dose per gram of tissue weight. For the same molecule, the Muscle ([1]; 4 h) was 0.002 ± 0.004 % of injected dose per gram of tissue weight, the Spleen ([1]; 4 h) was 0.981 ± 0.041 % of injected dose per gram of tissue weight and the Stomach ([1]; 4 h) was 0.139 ± 0.004 % of injected dose per gram of tissue weight. For the same molecule, the Thyroid ([1]; 4 h) was 0.372 ± 0.021 % of injected dose per gram of tissue weight, the Tumor ([1]; 4 h) was 0.406 ± 0.004 % of injected dose per gram of tissue weight and the Tumor/Blood ([1]; 4 h) was 0.395 ± 0.014. For the same molecule, the Tumor/Muscle ([1]; 4 h) was 9.715 ± 0.387, the UTERUS ([1]; 4 h) was 0.263 ± 0.005 % of injected dose per gram of tissue weight and the UTERUS/BLOOD ([1]; 4 h) was 0.255 ± 0.005. The UTERUS/MUSCLE ([1]; 4 h) was 6.278 ± 0.199 and the “cellular uptake compared to ^99mTc-EC” value [2] was “significant increase in uptake”.
In the case of “^99mTc-EC-LHRH (QHWSYGLRPG; also: 99mTc-ethylenedicysteine label, site not given here; UniProt P01148 24-33, looked up)”, the “cellular uptake compared to ^99mTc-EC” value [3] is reported as “significant increased uptake”.
